Activity calls are given as the source filed them. The calls are words filed in the database; no cut-off is given here.
What was measured:
[1] = Cytotoxicity against human MS cells measured after 72 hrs by MTT assay; assay type: functional, cell-based
[2] = Cytotoxicity against human A549 cells measured after 72 hrs by MTT assay; assay type: functional, cell-based; conditions: A549, 72 h
[3] = Cytotoxicity against human TE32 cells measured after 72 hrs by MTT assay; assay type: functional, cell-based; conditions: RD
[4] = Cytotoxicity against human HCT116 cells measured after 72 hrs by MTT assay; assay type: functional, cell-based; conditions: HCT-116, 72 h
[5] = Cytotoxicity against human Hep2 cells measured after 72 hrs by MTT assay; assay type: functional, cell-based; conditions: HEp-2, 72 h
[6] = Cytotoxicity against human HEK293 cells measured after 72 hrs by MTT assay; assay type: toxicity, cell-based
[7] = tested on: HCT-116; assay: Induction of apoptosis in human HCT116 cells assessed as viable cells at 6.7 uM measured after 18 hrs by Annexin-V FITC/propidium iodide staining based flow cytometry (reference value: 92.83%); assay type: functional; conditions: HCT-116, 18 h, read-out: Activity
[8] = tested on: HCT-116; assay: Induction of apoptosis in human HCT116 cells assessed as mitochondrial membrane permeability loss by measuring rhodamine 123 accumulation at 6.7 uM measured after 18 hrs by fluorescence inverted microscopic analysis; assay type: functional, cell-based
[9] = tested on: HCT-116; assay: Induction of apoptosis in human HCT116 cells assessed as nuclear fragmentation at 6.7 uM measured after 18 hrs by Hoechst 33258 staining based fluorescence inverted microscopic analysis; assay type: functional, cell-based
[10] = tested on: HCT-116; assay: Induction of apoptosis in human HCT116 cells assessed as chromatin condensation at 6.7 uM measured after 18 hrs by Hoechst 33258 staining based fluorescence inverted microscopic analysis; assay type: functional, cell-based
[11] = tested on: HCT-116; assay: Induction of apoptosis in human HCT116 cells assessed as necrotic cells at 6.7 uM measured after 18 hrs by Annexin-V FITC/propidium iodide staining based flow cytometry (reference value: 2.12%); assay type: functional
[12] = tested on: HCT-116; assay: Induction of apoptosis in human HCT116 cells assessed as early apoptotic cells at 6.7 uM measured after 18 hrs by Annexin-V FITC/propidium iodide staining based flow cytometry (reference value: 3.92%); assay type: functional
[13] = tested on: HCT-116; assay: Induction of apoptosis in human HCT116 cells assessed as formation of apoptotic bodies at 6.7 uM measured after 18 hrs by Hoechst 33258 staining based fluorescence inverted microscopic analysis; assay type: functional, cell-based
[14] = tested on: HCT-116; assay: Induction of apoptosis in human HCT116 cells assessed as late apoptotic cells at 6.7 uM measured after 18 hrs by Annexin-V FITC/propidium iodide staining based flow cytometry (reference value: 1.13%); assay type: functional
[15] = tested on: HCT-116; assay: Induction of apoptosis in human HCT116 cells assessed as appearance of half moon or crescent shape nuclei at 6.7 uM measured after 18 hrs by Hoechst 33258 staining based fluorescence inverted microscopic analysis; assay type: functional, cell-based
[16] = Toxicity in po or ip dosed mouse administered as single dose measured after 14 days; assay type: organism-based; conditions: in vivo
[17] = tested on: HCT-116; assay: Induction of apoptosis in human HCT116 cells assessed as mitochondrial membrane permeability loss by measuring rhodamine 123 accumulation at 5.7 uM measured after 18 hrs by fluorescence inverted microscopic analysis; assay type: functional, cell-based
[18] = tested on: HCT-116; assay: Induction of apoptosis in human HCT116 cells assessed as nuclear fragmentation at 5.7 uM measured after 18 hrs by Hoechst 33258 staining based fluorescence inverted microscopic analysis; assay type: functional, cell-based
[19] = tested on: HCT-116; assay: Induction of apoptosis in human HCT116 cells assessed as increase in caspase-8 activity at 5.7 uM measured up to 24 hrs; assay type: functional, cell-based
[20] = tested on: HCT-116; assay: Induction of apoptosis in human HCT116 cells assessed as appearance of half moon or crescent shape nuclei at 5.7 uM measured after 18 hrs by Hoechst 33258 staining based fluorescence inverted microscopic analysis; assay type: functional, cell-based
[21] = tested on: HCT-116; assay: Induction of apoptosis in human HCT116 cells assessed as increase in cck18 level at 5.7 uM measured after 18 hrs; assay type: functional, cell-based
[22] = tested on: HCT-116; assay: Cytotoxicity against human HCT116 cells at 5.7 uM by MTT assay; assay type: functional, cell-based; conditions: TDE = time-dependent effect
[23] = tested on: HCT-116; assay: Induction of apoptosis in human HCT116 cells assessed as viable cells at 5.7 uM measured after 18 hrs by Annexin-V FITC/propidium iodide staining based flow cytometry (reference value: 92.83%); assay type: functional; conditions: HCT-116, 18 h, read-out: Activity
[24] = tested on: HCT-116; assay: Induction of apoptosis in human HCT116 cells assessed as increase in caspase-3/7 activity at 5.7 uM measured up to 24 hrs; assay type: functional, cell-based
[25] = tested on: HCT-116; assay: Induction of apoptosis in human HCT116 cells assessed as necrotic cells at 5.7 uM measured after 18 hrs by Annexin-V FITC/propidium iodide staining based flow cytometry (reference value: 2.12%); assay type: functional
[26] = tested on: HCT-116; assay: Induction of apoptosis in human HCT116 cells assessed as late apoptotic cells at 5.7 uM measured after 18 hrs by Annexin-V FITC/propidium iodide staining based flow cytometry (reference value: 1.13%); assay type: functional
[27] = tested on: HCT-116; assay: Induction of apoptosis in human HCT116 cells assessed as formation of apoptotic bodies at 5.7 uM measured after 18 hrs by Hoechst 33258 staining based fluorescence inverted microscopic analysis; assay type: functional, cell-based
[28] = tested on: HCT-116; assay: Induction of apoptosis in human HCT116 cells assessed as early apoptotic cells at 5.7 uM measured after 18 hrs by Annexin-V FITC/propidium iodide staining based flow cytometry (reference value: 3.92%); assay type: functional
[29] = tested on: HCT-116; assay: Induction of apoptosis in human HCT116 cells assessed as chromatin condensation at 5.7 uM measured after 18 hrs by Hoechst 33258 staining based fluorescence inverted microscopic analysis; assay type: functional, cell-based

SMILES	IC50 [1] [µM]	IC50 [2] [µM]	IC50 [3] [µM]	IC50 [4] [µM]	IC50 [5] [µM]	also measured
C=C(C)[C@@H]1CC[C@]2(CO)CC[C@]3(C)[C@H](CC[C@@H]4[C@@]5(C)c6c(noc6C)C(=O)C(C)(C)[C@@H]5CC[C@]43C)[C@@H]12	24.3	> 100	> 100	29.3	30.7	–
C=C(C)[C@@H]1CC[C@]2(COC(C)=O)CC[C@]3(C)[C@H](CC[C@@H]4[C@@]5(C)c6c(noc6C)C(=O)C(C)(C)[C@@H]5CC[C@]43C)[C@@H]12	14	7.85	14.8	19	22.1	–
C=C(C)[C@@H]1CC[C@]2(CO)CC[C@]3(C)[C@H](CC[C@@H]4[C@@]5(C)C/C(=N\O)C(=O)C(C)(C)[C@@H]5CC[C@]43C)[C@@H]12	27.6	47.5	35.8	2.81	> 100	–
C=C(C)[C@@H]1CC[C@]2(CO)CC[C@]3(C)[C@H](CC[C@@H]4[C@@]5(C)Cc6c(nnc(C)[n+]6[O-])C(C)(C)[C@@H]5CC[C@]43C)[C@@H]12	16.2	> 100	> 100	14.3	4.5	–
C=C(C)[C@@H]1CC[C@]2(CO)CC[C@]3(C)[C@H](CC[C@@H]4[C@@]5(C)CCC(=O)C(C)(C)[C@@H]5CC[C@]43C)[C@@H]12 [BETULONE]	18.2	32.9	13.2	34	22.5	–
C=C(C)[C@@H]1CC[C@]2(CO)CC[C@]3(C)[C@H](CC[C@@H]4[C@@]5(C)C(=O)c6nc(C)oc6C(C)(C)[C@@H]5CC[C@]43C)[C@@H]12	26.7	43.2	> 100	16	19.4	–
C=C(C)[C@@H]1CC[C@]2(CO)CC[C@]3(C)[C@H](CC[C@@H]4[C@@]5(C)C=C(NC(C)=O)C(=O)C(C)(C)[C@@H]5CC[C@]43C)[C@@H]12	> 100	> 100	> 100	5.15	10.5	–
CC[C@@]1(O)C(=O)OCc2c1cc1n(c2=O)Cc2cc3ccccc3nc2-1 [CAMPTOTHECIN]	1.84	5.93	1.24	6.7	3.04	IC50 at 72 h [6]: 0.89 µM; viability at 6.7 µM [7]: 80.9%; Activity [8]: Active; Activity [9]: Active; Activity [10]: Active; Activity [11]: 5.07%; Activity [12]: 12.44%; Activity [13]: Active; Activity [14]: 1.6%; Activity [15]: Active
C=C(C)[C@@H]1CC[C@]2(C=O)CC[C@]3(C)[C@H](CC[C@@H]4[C@@]5(C)Cc6nn(C(C)=O)nc6C(C)(C)[C@@H]5CC[C@]43C)[C@@H]12	> 100	53.2	46	> 100	> 100	–
C=C(C)[C@@H]1CC[C@]2(COC(C)=O)CC[C@]3(C)[C@H](CC[C@@H]4[C@@]5(C)C(=O)c6nc(C)oc6C(C)(C)[C@@H]5CC[C@]43C)[C@@H]12	48.3	24	22.4	33.5	40.3	–
C=C(C)[C@@H]1CC[C@]2(C(=O)O)CC[C@]3(C)[C@H](CC[C@@H]4[C@@]5(C)Cc6c(nnc(C)[n+]6[O-])C(C)(C)[C@@H]5CC[C@]43C)[C@@H]12	> 100	> 100	> 100	1.4	1.5	IC50 at 72 h [6]: 2.1 µM
C=C(C)[C@@H]1CC[C@]2(COC(C)=O)CC[C@]3(C)[C@H](CC[C@@H]4[C@@]5(C)Cc6nn(C(C)=O)nc6C(C)(C)[C@@H]5CC[C@]43C)[C@@H]12	> 100	> 100	> 100	22.5	17.8	–
C=C(C)[C@@H]1CC[C@]2(CO)CC[C@]3(C)[C@H](CC[C@@H]4[C@@]5(C)Cc6nn(C(C)=O)nc6C(C)(C)[C@@H]5CC[C@]43C)[C@@H]12	2.29	20.7	4.46	5.67	7.46	IC50 at 72 h [6]: 12.7 µM; LD50 at 336 h [16]: > 600 mg/kg; Activity [17]: Active; Activity [18]: Active; Activity [19]: Active; Activity [20]: Active; Activity [21]: Active; Activity [22]: Tde; viability at 5.7 µM [23]: 80.9%; Activity [24]: Active; Activity [25]: 3.14%; Activity [26]: 1.04%; Activity [27]: Active; Activity [28]: 14.87%; Activity [29]: Active
C=C(C)[C@@H]1CC[C@]2(COC(C)=O)CC[C@]3(C)[C@H](CC[C@@H]4[C@@]5(C)C=C(NC(C)=O)C(=O)C(C)(C)[C@@H]5CC[C@]43C)[C@@H]12	> 100	37.5	33.7	83.6	21.6	–
